Source: patent publication US6265438A, “Vitamin compatible micronutrient supplement” (Heritage Technologies, LLC, priority 1999, dated 2001)
Read-outs that look alike come from different tables or passages of the source.

Tests used:
[1] = Hygroscopicity (weight gain in 90% humidity); assay type: physicochemical; conditions: 140 hr
Experimental: Tribasic zinc sulfate can be prepared in a reaction system depicted in FIG. 1. Initially the reactor vessel contained 100 ml of dionized water.
Initially the reactor vessel contained 100 ml of an aqueous solution of ammonium sulfate (400 g/l).

[2] = 98 ° F., about 3 months, 131400 min, cited from earlier work
[3] = in vivo
Experimental: Chicks were fed the respective basal diets for 21 days. There were six pens each containing six chicks (three male and three female) for each of eight dietary treatments, for a total of 288 birds. Chicks were housed in two Petersime brooder units with stainless steel fittings and maintained on a 24-hour constant light schedule. Tap water containing no detectable zinc and feed were available ad libitum. Feed intake was recorded per pen. At the end of the experiment, birds were weighed individually, killed by cervical dislocation, and right tibia removed and frozen individually for zinc analysis.
Zinc concentrations in basal diet, water, zinc sources, and tibias were determined by flame atomic absorption spectrophotometry (Model 5000 with an AS-50 autosampler, Perkin-Elmer, Norwalk Conn. 06859-0156, Anonymous, 1982. Analytical Methods for Atomic Absorption Spectrophotometry. Perkin-Elmer Corp., Norwalk, Conn.). Diet samples were dried at 105° C. for 12 hours, then were dry ashed at 550° C. for 12 hours, solubilized in HCl, and filtered through 42 Whatman paper. Bones were boiled for approximately 10 minutes in deionized water and cleaned of all soft tissue. Tibias with associated cartilages were dried for 12 hours at 105° C., extracted in a Soxhlet apparatus with petroleum ether for 48 hours prior to ashing, and then solubilized as indicated above. Water was concentrated 10-fold by evaporation on a hotplate. Zinc sources were refluxed for 4 hours in 1:1 (v:v) concentrated HCl--HNO3 and filtered through 42 Whatman paper. Standards were matched for macroelement and acid concentrations as needed.
Data were analyzed by two-way ANOVA with a model that included zinc source, dietary zinc concentration, and their interaction. Each of the six pens were used as experimental units. Body weight, feed intake, and percentage of bone ash were also analyzed by the General Linear Models (GLM) (SAS Institute, 1990. SAS/STAT User's Guide (Release 6.04) SAS Institute Inc., Cary, N.C.) with an LSMEANS statement and PDIFF option to compare treatment means. Multiple linear regression of bone zinc concentration on added dietary zinc concentration was calculated using GLM. Relative bioavailability estimates were calculated using slope ratios.

[4] = Chick feeding trial: feed intake, body weight, bone ash; assay type: in vivo; conditions: chicks fed 3 weeks
Experimental: Feed intake was recorded per pen.
Relative bioavailability estimates were calculated using slope ratios.

Water solubility = assay type: physicochemical
[5] = Sandoval et al. (1997), similar sample, cited from earlier work
E. coli = assay: Effect of zinc compounds on bacteria (colony count); assay type: cell-based, DMV strain; conditions: each of the bacteria tested
Experimental: (§1) A series of 42 test tubes were filled with 7 ml of distilled water, and the pH of the water was adjusted to a pH of 7. Fourteen tubes were selected, and 1 ml of an aqueous stock solution containing DMV (DelMarVa-Delaware, Maryland, Virginia source) strain of E. coli was added to each of the 14 tubes. A second set of 14 tubes was selected. To each tube in this second set was added 1 ml stock solution containing a DMV strain of salmonella. A third set of 14 tubes was then selected, and to each these tubes was added 1 ml of a stock solution containing a DMV strain of camplobacter.
(§2) Two tubes from each of the three sets served as controls, and no zinc compounds were added to these controls. […] The pH of half of the tubes from each set was adjusted to a pH of 2 by the addition of concentrated HCl; the pH of the other half of the tubes was maintained at a pH of 7. Sufficient water was added to each tube to provide a final volume of 10 ml. All the tubes were placed in an incubator that was maintained at 37° C. for three hours.
(§3) After three hours, 0.20 ml was taken from each of the tubes, of which 0.1 ml was used to inoculate a MacConley Ager plate and 0.1 ml was used to inoculate a Blood Ager plate. […] After 24 hours, each late was examined and the number of colonies on each plate was evaluated.

Salmonella = assay: as above; assay type: cell-based, DMV strain; conditions: each of the bacteria tested
Experimental: as §1, §2, §3

Camplobacter = assay: as above; assay type: cell-based, DMV strain; conditions: each of the bacteria tested

Compound | Hygroscopicity [1] | Slope ± SE (regression of bone zinc concentration on added dietary zinc concentration) [3] | Body Weight ([4]; added Zn 200 ppm) [g] | Bone Ash ([4]; added Zn 200 ppm) [ash wt %] | Feed Intake ([4]; added Zn 200 ppm) [g/bird] | Body Weight ([4]; added Zn 400 ppm) [g] | Bone Ash ([4]; added Zn 400 ppm) [ash wt %] | Feed Intake ([4]; added Zn 400 ppm) [g/bird] | Bioavailability of zinc (in words) [3] | further results
O.O.O.O.O.O=S(=O)([O-])[O-].[Cu+2] [copper sulfate pentahydrate] | 14.4 % weight gain | – | – | – | – | – | – | – | – | –
Cc1ncc(CO)c(CO)c1O [pyridoxine] | – | – | – | – | – | – | – | – | – | Loss of pyridoxine activity ([2]; multi-vitamin premixes containing inorganic trace minerals): about 55%; Loss of pyridoxine activity ([2]; premix containing no trace minerals): about 24%
[Cl-].[Cl-].[Zn+2] [reagent grade zinc chloride, zinc chloride] | 126.5 % weight gain | – | – | – | – | – | – | – | – | –
O.O.O.O.O.O.O.O=S(=O)([O-])[O-].[Zn+2] [reagent grade zinc sulfate, zinc sulfate heptahydrate, reference compound] | 36.1 % weight gain | 0.1193 ± 0.0316 | 574 | 44.2 | 710 | 559 | 42.8 | 679 | – | –
O=S(=O)([O-])[O-].[Cu+2].[Cu+2].[Cu+2].[Cu+2].[OH-].[OH-].[OH-].[OH-].[OH-].[OH-] [tribasic copper sulfate] | about 1.73 % weight gain | – | – | – | – | – | – | – | – | Water solubility (Water solubility): about 430 mg Cu per liter
[O]=[Zn] [zinc oxide] | – | 0.0584 ± 0.0309 | – | – | – | 588 | 44.4 | 709 | lower (P<0.05) than that for other sources | Solubility in HCl ([5]; 60 min): 99%; Solubility in citric acid ([5]; 60 min): 69%; Solubility in neutral ammonium citrate ([5]; 60 min): 53%; Solubility in water [5]: insoluble; Relative bioavailability value (slope ratio) ([3]; chicken, 30240 min): 49.0±10.1%; Relative value ± SE (slope ratio of bone zinc regression) ([3]; chicken, 30240 min): 49.0 ± 10.1; 95% Confidence Interval of relative value [3]: 28.7-69.2
basic zinc chloride | – | 0.1273 ± 0.0316 | 592 | 45.1 | 724 | 563 | 43.6 | 652 | equal to that of reagent grade zinc sulfate | –
basic zinc sulfate | – | 0.1200 ± 0.0316 | 585 | 44.4 | 690 | 599 | 44.5 | 708 | equal to that of reagent grade zinc sulfate | –
tribasic zinc chloride | – | – | – | – | – | – | – | – | – | Growth rate of bacteria (in words) (E. coli): significantly reduced the growth rate; Growth rate of bacteria (in words) (Salmonella): significantly reduced the growth rate; Growth rate of bacteria (in words) (Camplobacter): significantly reduced the growth rate
tribasic zinc sulfate | about 4.65 % weight gain | – | – | – | – | – | – | – | – | Water solubility (Water solubility): about 15 mg zinc per liter
